According to PMC4418665, “Cyclization of the Urokinase Receptor-Derived Ser-Arg-Ser-Arg-Tyr Peptide Generates a Potent Inhibitor of Trans-Endothelial Migration of Monocytes” (PLoS ONE, 2015):
Peptide text beside a SMILES is read from it.

Key:
human primary monocytes = assay: Primary monocyte migration in Boyden chambers; format: cell-based; conditions: 10 nM peptide, 90 minutes
primary macrophages = assay: Primary macrophage migration in DUNN chamber; format: cell-based, human; conditions: 10 nM peptide added to 10 nM fMLF gradient, 6 hours
Method: The ability of [SRSRY] peptide to affect THP-1 cell migration was analyzed in Boyden chambers using 10 nM fMLF or 10 nM SRSRY as chemoattractants. […] Inhibitory effect of [SRSRY] is dose-dependent, it starts in the high fM range, it seems to level off in the μM range and reaches an overall 50% reduction at 10 pM (Fig 4B). […] The mechanisms by which monocytes move when subjected to a chemoattractant gradient, involve changes in cytoskeletal organization, which provide both protrusive and contractile forces necessary for cell migration. […] A total of 100 cells/sample that translocated to the area corresponding to the ring separating the inner and outer chambers were counted and their cytoskeletal organization examined with a fluorescence-inverted microscope. […] After 6 hours incubation, a total of 100 cells/sample that translocated to the area corresponding to the ring separating the inner and outer chambers were counted. […] Data are expressed as the means ± SD of three independent experiments, performed in duplicate. *Statistical significance against None with p<0.001. […] The extent of cell migration was expressed as a percentage of the net fMLF-dependent cell migration, considered as 100%. Data are expressed as the means ± SD of three independent experiments, performed in duplicate. […]

[1] = system: PMA-differentiated THP-1 cells; format: cell-based, human; conditions: 3 h
Method: (§1) The ability of [SRSRY] peptide to affect THP-1 cell migration was analyzed in Boyden chambers using 10 nM fMLF or 10 nM SRSRY as chemoattractants. […] Inhibitory effect of [SRSRY] is dose-dependent, it starts in the high fM range, it seems to level off in the μM range and reaches an overall 50% reduction at 10 pM (Fig 4B). […] The mechanisms by which monocytes move when subjected to a chemoattractant gradient, involve changes in cytoskeletal organization, which provide both protrusive and contractile forces necessary for cell migration. To gain some insights into the cellular effects exerted by peptide [SRSRY], PMA-differentiated THP-1 cells were grown adherent onto a glass slide, exposed to diluents (CTL), 10 nM fMLF gradient plus/minus 10 nM [SRSRY] or 10 nM [RSSYR] in a DUNN chamber for 6 hours as described, and then stained with rhodamine-phalloidin. A total of 100 cells/sample that translocated to the area corresponding to the ring separating the inner and outer chambers were counted and their cytoskeletal organization examined with a fluorescence-inverted microscope. […] Conversely, the addition of peptide [SRSRY] to the fMLF gradient reduced cell elongation and alignment with the appearance of F-actin linear distribution along the plasma membranes in the 60% of cell population (Fig 4C). In order to verify whether the inhibitory effect of [SRSRY] also occurs on primary monocytes and/or macrophages, human monocytes and macrophages were subjected to cell migration assays in Boyden and DUNN chambers, respectively. […] Unlike [RSSYR], 10 nM [SRSRY] reduced both fMLF- and SRSRY- directed monocyte migration by 50% and 49%, respectively. Next, primary macrophages were subjected to cell migration assay in DUNN chamber as above described. After 6 hours incubation, a total of 100 cells/sample that translocated to the area corresponding to the ring separating the inner and outer chambers were counted. Macrophage exposure to 10 nM fMLF elicited a considerable cell migration, reaching 230% of the basal cell migration (CTL), that was unchanged by 10 nM [[…]). […] These findings indicate that unlike linear SRSRY, the cyclic form of the chemotactic sequence of uPAR inhibits monocyte motility and prevents cytoskeletal re-organization occurring during migration of macrophages. {[…]] inhibits migration of monocytes and macrophages in a dose-dependent manner causing a marked inhibition of fMLF-dependent cytoskeletal re-organization. A. THP-1 cells (1x10^5 cells/well) were allowed to migrate for 90 minutes at 37°C, 5% CO2 in Boyden chambers toward 10 nM fMLF, or 10 nM SRSRY in the presence of diluents (None), 10 nM [RSSYR] or 10 nM [SRSRY]. […] Data are expressed as the means ± SD of three independent experiments, performed in duplicate. *Statistical significance against None with p<0.001. B. THP-1 and PMA-stimulated THP-1 cell migration toward 10 nM fMLF plus increasing concentrations of [SRSRY] in Boyden chambers. The extent of cell migration was expressed as a percentage of the net fMLF-dependent cell migration, considered as 100%. Data are expressed as the means ± SD of three independent experiments, performed in duplicate. C. Representative images of PMA-stimulated THP-1 cells allowed to migrate in a DUNN chamber toward diluents (CTL), or a fMLF chemotactic gradient, in the absence (None) or presence of 10 nM [SRSRY] or [RSSYR] peptides and stained with rhodamine-phalloidin. Scale bar: 10 μm. Original magnifications: 630x. D-E. Primary monocytes (1x10^5 cells/well) were allowed to migrate for 90 minutes at 37°C, 5% CO2 in Boyden chambers toward 10 nM fMLF (D), or 10 nM […]) in the presence of diluents (None), 10 nM [RSSYR] or 10 nM [SRSRY]. […] Data are expressed as the means ± SD of three independent experiments, performed in duplicate. *Statistical significance against None with p<0.001; **Statistical significance against None with p<0.0001. […]

THP-1 cells = format: cell-based, human
Method: as §1

[2] = 10 nM peptide, 90 minutes, Boyden chamber

SMILES: N=C(N)NCCC[C@@H]1NC(=O)[C@H](CO)NC(=O)[C@H](Cc2ccc(O)cc2)NC(=O)[C@H](CCCNC(=N)N)NC(=O)[C@H](CO)NC1=O [[SRSRY], [Ser-Arg-Ser-Arg-Tyr]] (cyclo(RSRYS))
- reduction of SRSRY-directed primary monocyte migration (human primary monocytes; 10 nM SRSRY): 49%
- reduction of fMLF-directed primary monocyte migration (human primary monocytes; 10 nM fMLF): 50%
- effect on fMLF-directed migration of primary macrophages (primary macrophages): reduced migration of primary macrophages to the basal level
- IC50 [1]: 0.01 nM
- reduction of THP-1 monocyte migration toward 10 nM SRSRY (THP-1 cells; [2]): 68%
- reduction of THP-1 monocyte migration toward 10 nM fMLF (THP-1 cells; [2]): 58%
- IC50 (THP-1 cells; 6 h): 0.01 nM
